Where two headings read alike, the source gives them in different places.
Columns and labels:
CDK1:Cyclin-B = target: T1, CDK1:Cyclin-B (Homo sapiens, UniProt P06493); experiment: CDK1 Screening Assay; assay type: biochemical
T1 construct: purchased New England Biolabs 6020; host or cells: insect cells
Method in brief: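 Human CDK1:cyclin-B (30 ng/well) with biotinylated histone-H1 peptide and ^33P-γ-ATP, 1 h at 30° C, 1% DMSO, on streptavidin FlashPlate; incorporation read by scintillation.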

[1] = target: T2, VEGF-R (vascular endothelial growth factor receptor-2) (Rattus norvegicus, UniProt O08775); experiment: VEGF-R Screening Assay; assay type: biochemical
T2 construct: polyhistidine (6xHIS) (N)
T2 sequence (O08775 786-1343): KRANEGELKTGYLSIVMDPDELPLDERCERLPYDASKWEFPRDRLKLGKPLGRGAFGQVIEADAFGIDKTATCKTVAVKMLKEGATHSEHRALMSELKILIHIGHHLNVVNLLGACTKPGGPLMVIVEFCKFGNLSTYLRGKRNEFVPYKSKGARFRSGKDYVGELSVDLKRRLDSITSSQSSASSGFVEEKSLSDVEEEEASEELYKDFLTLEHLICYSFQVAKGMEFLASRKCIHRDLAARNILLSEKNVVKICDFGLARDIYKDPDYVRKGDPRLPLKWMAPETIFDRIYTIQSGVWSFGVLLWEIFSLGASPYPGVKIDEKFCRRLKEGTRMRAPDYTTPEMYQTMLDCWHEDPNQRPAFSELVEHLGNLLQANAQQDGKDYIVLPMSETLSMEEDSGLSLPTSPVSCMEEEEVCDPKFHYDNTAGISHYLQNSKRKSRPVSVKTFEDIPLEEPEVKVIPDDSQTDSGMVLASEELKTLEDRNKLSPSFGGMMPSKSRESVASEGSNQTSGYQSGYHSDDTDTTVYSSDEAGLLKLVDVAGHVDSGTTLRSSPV

[2] = target: T3, Glycogen Synthase Kinase-3 (beta isoform) (Oryctolagus cuniculus, UniProt G1T8E2); experiment: Kinase Selectivity Assay Glycogen Synthase Kinase-3; assay type: biochemical, rabbit
T3 construct: purchased New England Biolabs 6040; host or cells: E. coli
T3 sequence (G1T8E2 1-432): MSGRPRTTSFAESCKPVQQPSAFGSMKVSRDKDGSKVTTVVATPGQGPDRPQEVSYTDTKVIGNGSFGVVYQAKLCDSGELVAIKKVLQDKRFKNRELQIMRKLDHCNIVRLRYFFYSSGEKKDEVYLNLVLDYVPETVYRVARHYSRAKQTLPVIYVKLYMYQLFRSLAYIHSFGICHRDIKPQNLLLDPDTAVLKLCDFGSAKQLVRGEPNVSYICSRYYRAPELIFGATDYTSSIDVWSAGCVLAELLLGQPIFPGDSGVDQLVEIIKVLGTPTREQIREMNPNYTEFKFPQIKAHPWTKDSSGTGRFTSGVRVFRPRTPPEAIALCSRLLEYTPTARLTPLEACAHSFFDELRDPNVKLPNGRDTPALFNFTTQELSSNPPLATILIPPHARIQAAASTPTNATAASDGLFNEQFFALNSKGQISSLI
Experimental: (§1) Assays to test compound inhibition of other kinases were preformed using methods that measure the amount of phosphorylation of a biotinylated peptide substrate. Biotinylated peptide substrates were selected from the literature as appropriate for the enzyme being evaluated. […] Assay conditions vary slightly for each protein kinase, for example, insulin receptor kinase requires 10 mM MnCl2 for activity and Calmodulin-dependent protein kinase requires calmodulin and 10 mM CaCl2. These assay conditions are known in the art. The reaction mixture was dispensed into the wells of a streptavidin coated Flashplate and 1 μl drug stock in 100% DMSO was added to a 100 μl reaction volume resulting in a final concentration of 1% DMSO on the reaction. Enzyme was diluted in 50 mM Tris-HCl pH=8.0, 0.1% BSA and add to each well. The reaction was incubated for one hour at 30° C. in the presence of compound. After one hour the reaction mix was aspirated from the plate and the plate was washed with PBS containing 100 mM EDTA. The plate was read on a scintillation counter to determine ^33P-γ-ATP incorporated into the immobilized peptide. Test compounds were assayed in duplicate at 8 concentrations [100 uM, 10 uM, 1 uM, 100 nM, 10 nM, 1 nM, 100 pM, 10 pM]. A maximum and minimum signal for the assay was determined on each plate. The IC50 was calculated from the dose response curve of the percent inhibition of the maximum signal in the assay according to the formula [max signal—background/test compound signal—background (100)=% inhibition] by graphing the percent inhibition against the log concentration of test compound. Known inhibitor compounds appropriate for the kinase being assayed were also included on each plate.
(§2) CDK2 in complex with cyclin A is commercially available (Upstate Biotech, Lake Placid, N.Y.). The CDK4 complex was composed of a mouse CDK4 protein and a mouse Cyclin D1 protein (The mouse CDK4 protein was genetically fused to an N-terminal Flag-epitope tag and the mouse Cyclin D1 protein was fused with an N-terminal AU-1 epitope tag. The genes encoding these proteins were transferred to commercially available baculoviral vectors. The recombinant CDK4/D1 complex was then made by co-infecting commercially available insect cells with viruses carrying these two constructs). […] ERK-1 protein (Discontinued from Calbiochem). EGFR (epidermal growth factor receptor) is purified from human A431 cell membranes (Sigma, St. Louis, Mo., Cat.# E3641).

[3] = target: T4, MAP Kinase (ERK-2 isoform) (Rattus norvegicus, UniProt P63086); experiment: Kinase Selectivity Assay MAP Kinase (ERK-2); assay type: biochemical
T4 construct: polyhistidine (N); host or cells: E. coli
T4 sequence (P63086 whole entry, canonical isoform): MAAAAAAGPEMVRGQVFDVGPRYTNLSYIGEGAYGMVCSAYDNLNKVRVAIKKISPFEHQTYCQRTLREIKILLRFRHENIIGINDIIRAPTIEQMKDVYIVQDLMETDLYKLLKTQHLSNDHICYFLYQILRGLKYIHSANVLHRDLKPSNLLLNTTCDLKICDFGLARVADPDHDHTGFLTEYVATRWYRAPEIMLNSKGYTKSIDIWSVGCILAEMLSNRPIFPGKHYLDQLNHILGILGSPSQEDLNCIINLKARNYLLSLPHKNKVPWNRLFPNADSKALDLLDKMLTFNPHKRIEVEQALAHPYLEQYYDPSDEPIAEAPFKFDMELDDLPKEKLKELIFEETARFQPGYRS
Experimental: as §1, §2

[4] = target: T5, PDGF-R (platelet derived growth factor receptor) beta subunit kinase domain (Homo sapiens, UniProt P09619); experiment: Kinase Selectivity Assay PDGF-R; assay type: biochemical
T5 construct: nucleotides 1874-3507 of the human PDGF-R beta subunit kinase domain; polyhistidine (N)
T5 sequence (P09619 564-1106): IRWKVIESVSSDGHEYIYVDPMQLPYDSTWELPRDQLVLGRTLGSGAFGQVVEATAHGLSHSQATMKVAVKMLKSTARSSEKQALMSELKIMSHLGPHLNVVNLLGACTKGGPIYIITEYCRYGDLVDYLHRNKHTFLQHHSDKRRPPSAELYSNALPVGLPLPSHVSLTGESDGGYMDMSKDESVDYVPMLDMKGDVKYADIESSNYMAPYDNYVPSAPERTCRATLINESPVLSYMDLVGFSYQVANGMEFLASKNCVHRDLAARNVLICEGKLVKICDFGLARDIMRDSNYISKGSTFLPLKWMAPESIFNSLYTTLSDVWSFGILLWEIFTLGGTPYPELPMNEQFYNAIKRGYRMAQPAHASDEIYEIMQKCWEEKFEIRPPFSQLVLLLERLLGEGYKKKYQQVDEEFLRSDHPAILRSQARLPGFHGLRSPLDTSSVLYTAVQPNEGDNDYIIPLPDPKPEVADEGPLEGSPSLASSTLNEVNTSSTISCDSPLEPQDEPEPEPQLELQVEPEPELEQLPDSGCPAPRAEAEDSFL
Experimental: as §1, §2

[5] = target: T6, Casein Kinase 2 (alpha and beta subunits) (Homo sapiens, UniProt P68400); experiment: Kinase Selectivity Assay Casein Kinase 2; assay type: biochemical
T6 construct: purchased New England Biolabs 6010; host or cells: E. coli
T6 sequence (P68400 whole entry): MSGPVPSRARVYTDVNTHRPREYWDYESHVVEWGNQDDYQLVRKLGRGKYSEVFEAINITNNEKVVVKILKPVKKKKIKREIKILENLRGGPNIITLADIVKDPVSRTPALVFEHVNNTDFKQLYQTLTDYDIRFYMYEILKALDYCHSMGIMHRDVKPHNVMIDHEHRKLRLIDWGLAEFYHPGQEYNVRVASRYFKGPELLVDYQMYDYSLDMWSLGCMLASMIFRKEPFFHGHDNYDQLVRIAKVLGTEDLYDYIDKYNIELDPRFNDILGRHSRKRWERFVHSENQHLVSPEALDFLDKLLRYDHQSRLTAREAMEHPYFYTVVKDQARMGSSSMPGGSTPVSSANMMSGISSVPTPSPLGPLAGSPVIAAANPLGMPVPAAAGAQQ
T6 sequence (P67870 whole entry partner): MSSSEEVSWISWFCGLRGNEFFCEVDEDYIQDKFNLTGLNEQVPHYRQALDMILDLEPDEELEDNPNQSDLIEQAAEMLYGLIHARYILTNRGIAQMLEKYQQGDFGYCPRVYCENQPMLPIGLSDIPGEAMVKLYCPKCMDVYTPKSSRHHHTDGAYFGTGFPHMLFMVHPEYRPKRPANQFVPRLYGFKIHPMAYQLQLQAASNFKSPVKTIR
Experimental: as §1, §2

Insulin Receptor Kinase = Insulin Receptor Kinase (Homo sapiens, UniProt P06213); experiment: Kinase Selectivity Assay Insulin Receptor Kinase; assay type: biochemical
Sequence of Insulin Receptor Kinase (P06213 980-1352): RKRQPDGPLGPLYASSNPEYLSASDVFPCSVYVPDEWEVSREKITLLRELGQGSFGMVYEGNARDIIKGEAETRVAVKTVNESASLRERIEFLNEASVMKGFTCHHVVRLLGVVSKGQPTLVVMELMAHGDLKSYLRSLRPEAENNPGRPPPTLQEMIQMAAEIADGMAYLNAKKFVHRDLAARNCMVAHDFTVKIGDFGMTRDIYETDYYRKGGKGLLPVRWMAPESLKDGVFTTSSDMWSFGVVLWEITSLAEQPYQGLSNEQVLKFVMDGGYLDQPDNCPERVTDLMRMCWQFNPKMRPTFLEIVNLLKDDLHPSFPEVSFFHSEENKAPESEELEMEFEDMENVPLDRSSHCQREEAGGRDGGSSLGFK
Experimental: as §1, §2

Protein Kinase A = target: T7, Protein Kinase A (Bos taurus, UniProt P00517); experiment: Kinase Selectivity Assay Protein Kinase A; assay type: biochemical, bovine
T7 construct: purified from bovine heart; purchased Upstate Biotech 14-114; host or cells: bovine heart
Experimental: as §1, §2

[6] = target: T8, Calmodulin Kinase (calmodulin-dependent protein kinase 2) (Rattus norvegicus, UniProt P11275); experiment: Kinase Selectivity Assay Calmodulin Kinase; assay type: biochemical
T8 construct: a truncated version of the alpha subunit of the rat protein; purchased New England Biolabs 6060; host or cells: insect cells
Experimental: as §1, §2

[7] = target: T9, HER2 (human epidermal growth factor receptor-2) (Homo sapiens, UniProt P04626); experiment: Kinase Selectivity Assay HER2; assay type: biochemical
T9 construct: begins at amino acid 676 followed by the remainder of the HER2 cytoplasmic domain; polyhistidine (N)
T9 sequence (P04626 676-1255 limits assumed): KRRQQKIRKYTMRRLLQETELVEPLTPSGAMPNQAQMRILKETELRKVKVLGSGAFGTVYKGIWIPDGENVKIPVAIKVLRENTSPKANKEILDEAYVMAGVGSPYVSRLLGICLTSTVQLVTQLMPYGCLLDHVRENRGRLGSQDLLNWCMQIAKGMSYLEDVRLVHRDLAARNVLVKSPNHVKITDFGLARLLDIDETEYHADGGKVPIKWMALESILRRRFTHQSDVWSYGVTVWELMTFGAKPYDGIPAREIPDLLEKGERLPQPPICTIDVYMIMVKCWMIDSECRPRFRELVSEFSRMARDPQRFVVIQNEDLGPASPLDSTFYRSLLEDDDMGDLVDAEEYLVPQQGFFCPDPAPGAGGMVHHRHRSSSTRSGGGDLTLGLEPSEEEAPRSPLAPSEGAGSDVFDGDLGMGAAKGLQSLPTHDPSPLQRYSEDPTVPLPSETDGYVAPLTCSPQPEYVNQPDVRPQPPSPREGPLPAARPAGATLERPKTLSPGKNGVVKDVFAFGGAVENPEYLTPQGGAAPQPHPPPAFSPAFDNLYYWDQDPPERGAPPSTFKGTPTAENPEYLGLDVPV
Experimental: as §1, §2

[8] = target: T10, CDK2 in complex with cyclin A (Homo sapiens, UniProt P24941); experiment: Kinase Selectivity Assay CDK2; assay type: biochemical; settings: Table 1
T10 construct: purchased Upstate Biotech
Experimental: as §1, §2

[9] = Kinase Selectivity, Tables 2a-2k, read-out: CDK1 IC50
[10] = Kinase Selectivity, Tables 2a-2k, read-out: VEGF-R IC50
[11] = Kinase Selectivity, Tables 2a-2k, read-out: Caseine Kinase 2 IC50
[12] = Kinase Selectivity, Tables 2a-2k, read-out: GSK-3 IC50
[13] = Kinase Selectivity, Tables 2a-2k, read-out: PDGF-R kinase IC50
[14] = Kinase Selectivity, Tables 2a-2k, read-out: HER2 Kinase IC50

T1 sequence (P06493 whole entry): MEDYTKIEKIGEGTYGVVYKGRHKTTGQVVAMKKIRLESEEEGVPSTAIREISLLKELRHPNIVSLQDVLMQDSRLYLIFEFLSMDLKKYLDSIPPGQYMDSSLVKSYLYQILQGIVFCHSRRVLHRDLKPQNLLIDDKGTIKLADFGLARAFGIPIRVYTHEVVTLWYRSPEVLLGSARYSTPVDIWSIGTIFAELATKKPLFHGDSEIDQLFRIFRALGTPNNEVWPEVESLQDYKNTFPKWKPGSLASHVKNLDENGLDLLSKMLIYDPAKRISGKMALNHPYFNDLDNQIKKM
T1 sequence (P14635 whole entry partner): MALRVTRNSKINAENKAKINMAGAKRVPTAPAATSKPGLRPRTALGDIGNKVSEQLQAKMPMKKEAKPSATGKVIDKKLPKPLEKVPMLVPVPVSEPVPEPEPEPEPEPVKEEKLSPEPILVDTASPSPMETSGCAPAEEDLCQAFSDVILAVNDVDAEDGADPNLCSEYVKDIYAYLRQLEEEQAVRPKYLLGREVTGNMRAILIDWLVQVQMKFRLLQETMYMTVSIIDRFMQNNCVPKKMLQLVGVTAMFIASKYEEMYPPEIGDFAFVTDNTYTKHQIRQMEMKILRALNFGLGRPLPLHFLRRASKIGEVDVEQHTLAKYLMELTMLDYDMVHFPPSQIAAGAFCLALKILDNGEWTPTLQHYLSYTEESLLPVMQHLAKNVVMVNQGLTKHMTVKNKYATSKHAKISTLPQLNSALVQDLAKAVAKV

Row | SMILES | IC50 (CDK1:Cyclin-B; [9]) [nM] | IC50 (CDK1:Cyclin-B; Table 1, read-out: CDK1 IC50) [nM] | IC50 [1, 10] [nM] | IC50 ([1]; Table 1, read-out: VEGF-R IC50) [nM] | IC50 ([7]; Table 1, read-out: HER2 IC50) [nM] | other results
1 | Cc1ccc(F)c(C(=O)n2nc(Nc3ccc(S(N)(=O)=O)cc3)nc2N)c1F [Cpd 2, 4-[[5-amino-1-(2,6-difluoro-3-methylbenzoyl)-1H-1,2,4-triazol-3-yl]amino]-benzenesulfonamide] | 3 | 3.2 | 366 | 366 |  | IC50 [2]: 31 nM; IC50 [3]: 9480 nM; IC50 [4]: 10700 nM
2 | Cc1ccsc1C(=O)n1nc(Nc2ccc(S(N)(=O)=O)cc2)nc1N [Cpd 15, 4-[[5-amino-1-[(3-methyl-2-thienyl)carbonyl]-1H-1,2,4-triazol-3-yl]amino]-benzenesulfonamide] | 4.8 | 4.8 |  |  |  | IC50 [5, 11]: > 100000 nM; IC50 [2, 12]: 1.8 nM; IC50 [4, 13]: 79 nM
3 | Cc1cc(C)c(C(=O)n2nc(Nc3ccc(S(N)(=O)=O)cc3)nc2N)s1 [Cpd 33, 4-[[5-amino-1-[(3,5-dimethyl-2-thienyl)carbonyl]-1H-1,2,4-triazol-3-yl]amino]-benzenesulfonamide] |  |  | 23 |  |  | IC50 (CDK1:Cyclin-B; CDK1 IC50, Kinase Selectivity, Tables 2a-2k): 3 nM; IC50 (CDK1:Cyclin-B; CDK1 IC50, Table 1): 3.2 nM; IC50 [1]: 23.4 nM; IC50 (Insulin Receptor Kinase): 316 nM; IC50 (Protein Kinase A): > 100000 nM; IC50 [5]: > 10000 nM; IC50 [6]: > 10000 nM; IC50 [2]: 4 nM; IC50 [3]: > 10000 nM; IC50 [4]: 39 nM; IC50 [7]: 5 nM
4 | Nc1nc(Nc2ccc(S(N)(=O)=O)cc2)nn1C(=S)Nc1c(F)cccc1F [Cpd 66, 5-amino-3-[[4-(aminosulfonyl)phenyl]amino]-N-(2,6-difluorophenyl)-1H-1,2,4-triazole-1-carbothioamide] | 0.6 | 0.6 |  |  | 60 | IC50 [5, 11]: > 100000 nM; IC50 [4, 13]: 1580 nM; IC50 [7, 14]: 60 nM
5 | Nc1nc(Nc2ccc(S(N)(=O)=O)cc2)nn1C(=O)Nc1c(F)cccc1F [Cpd 67, 5-amino-3-[[4-(aminosulfonyl)phenyl]amino]-N-(2,6-difluorophenyl)-1H-1,2,4-triazole-1-carboxamide] |  | 3.7 |  | 38 | 52 | IC50 [8]: 1.4 nM
6 | CCNS(=O)(=O)c1ccc(Nc2nc(N)n(C(=O)c3c(F)cccc3F)n2)cc1 [Cpd 76, 4-[[5-amino-1-(2,6-difluorobenzoyl)-1H-1,2,4-triazol-3-yl]amino]-N-ethyl-benzenesulfonamide] |  | 12 |  | 530 | ~1000 | IC50 [8]: 4.4 nM
7 | Cc1ccc(F)c(C(=O)n2nc(Nc3ccc(-n4cnnc4)cc3)nc2N)c1F [Cpd 101, 1-(2,6-difluoro-3-methylbenzoyl)-N^3-[4-(4H-1,2,4-triazol-4-yl)phenyl]-1H-1,2,4-triazole-3,5-diamine] |  | 143 |  | 650 | 819 | 
8 | Cc1ccsc1C(=O)n1nc(Nc2ccc(-n3cnnc3)cc2)nc1N [Cpd 102, 1-[(3-methyl-2-thienyl)carbonyl]-N^3-[4-(4H-1,2,4-triazol-4-yl)phenyl]-1H-1,2,4-triazole-3,5-diamine] |  | 2350 |  | 1100 | 2260 | 
9 | CS(=O)(=O)Nc1ccc(Nc2nc(N)n(C(=O)c3c(F)cccc3F)n2)cc1 [Cpd 111] |  | 150 |  | 702 | 16800 | 
10 | Cc1ccc(F)c(C(=O)n2nc(Nc3ccc(NS(C)(=O)=O)cc3)nc2N)c1F [Cpd 112] |  | 87 |  | 704 | 16400 | 
11 | Nc1nc(Nc2cccc(Cl)c2)n(C(=O)c2c(F)cccc2F)n1 [Cpd 126, N^5-(3-chlorophenyl)-1-(2,6-difluorobenzoyl)-1H-1,2,4-triazole-3,5-diamine] | > 100000 |  | > 100000 |  |  | IC50 [2, 12]: > 100000 nM; IC50 [7, 14]: ~100000 nM
12 | Nc1nc(Nc2cccc(Cl)c2)n(C(=O)c2ccccc2)n1 [Cpd 127, 1-benzoyl-N^5-(3-chlorophenyl)-1H-1,2,4-triazole-3,5-diamine] | > 100000 |  | > 100000 |  |  | IC50 [2, 12]: > 100000 nM; IC50 [7, 14]: > 100000 nM

Reference: patent US6924302B2, “Substituted triazole diamine derivatives as kinase inhibitors” (Ortho McNeil Pharmaceutical, Inc., priority 2000, dated 2005)
